Data: patent publication US5707966A, “Antithrombotic agents” (Eli Lilly and Company, priority 1995, dated 1998)
Counter-ions that a name gives are not always drawn. Like-named read-outs stand apart in the source and are kept apart here.

Tests used:
[1] = target: T1, factor Xa (Homo sapiens, UniProt P00742); test: Kass with factor Xa, chromogenic substrate; format: biochemical
T1 construct: Human factors X, Xa, IXa, XIa, and XIIa are purchased; purchased Enzyme Research Laboratories, South Bend, Ind

[2] = target: T2, t-PA (Homo sapiens, UniProt P00750); test: Kass with t-PA, chromogenic substrate; format: biochemical; details: substrate H-D-Ile-Pro-Arg-p-nitroanilide
T2 construct: purchased American Diagnostica, Greenwich, Conn

[3] = target: Human Thrombin (Homo sapiens, UniProt P00734); test: Inhibition of amidase activity of thrombin (Kass); format: biochemical
[4] = target: T3, Human plasmin (Homo sapiens, UniProt P00747); test: Kass with plasmin, chromogenic substrate; format: biochemical
T3 construct: Human plasmin is purchased; purchased Boehringer Mannheim, Indianapolis, Ind

[5] = test system: Human plasma; test: Human plasma anticoagulation, thrombin time (TT); format: biochemical; details: concentration required to double the thrombin time, linear extrapolation
Summary of the method: (§1)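 Values are concentrations estimated by linear extrapolation to double the clotting time in human plasma containing test compound across a wide range. Thrombin time was triggered with bovine thrombin at 10 NIH units/mL plus saline, and prothrombin time with Thromboplastin-C plus saline. For APTT, plasma sat with Actin reagent for 120 seconds before 0.02M CaCl2.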

[6] = Index of bioavailability (% Relative Activity, plasma TT AUC oral vs i.v.); format: in vivo; details: dose-adjusted AUC of plasma TT, p.o. vs i.v. bolus
Method: Parke Davis) at 37° C. […] Assays are done in duplicate and averaged. […] Each sample population represented alternating sequential time points.

[7] = target: T4, Bovine trypsin (Bos taurus, UniProt P00760); test: Kass with trypsin, chromogenic substrate; format: biochemical
T4 construct: Bovine trypsin is purchased; purchased Worthington Biochemicals, Freehold, N.J
T4 sequence (P00760 24-246): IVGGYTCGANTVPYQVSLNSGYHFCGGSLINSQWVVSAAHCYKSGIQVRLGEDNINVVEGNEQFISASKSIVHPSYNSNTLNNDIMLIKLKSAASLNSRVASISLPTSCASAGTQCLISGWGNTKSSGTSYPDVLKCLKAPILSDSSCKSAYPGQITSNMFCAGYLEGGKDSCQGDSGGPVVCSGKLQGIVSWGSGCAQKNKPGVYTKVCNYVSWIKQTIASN

[8] = test system: Human plasma; test: Human plasma anticoagulation, activated partial thromboplastin time (APTT); format: biochemical; details: concentration required to double the APTT, linear extrapolation
Summary of the method: as §1

[9] = test system: Human plasma; test: Human plasma anticoagulation, prothrombin time (PT); format: biochemical; details: concentration required to double the PT, linear extrapolation
Summary of the method: as §1

[10] = substrate N-Benzoyl-Ile-Glu-Gly-Arg-p-nitroanilide
[11] = mean over a range of concentrations, […]
[12] = substrate H-D-Val-Leu-Lys-p-nitroanilide
[13] = substrate N-Benzoyl-Phe-Val-Arg-p-nitroanilide

T1 sequence (P00742 235-488 limits assumed): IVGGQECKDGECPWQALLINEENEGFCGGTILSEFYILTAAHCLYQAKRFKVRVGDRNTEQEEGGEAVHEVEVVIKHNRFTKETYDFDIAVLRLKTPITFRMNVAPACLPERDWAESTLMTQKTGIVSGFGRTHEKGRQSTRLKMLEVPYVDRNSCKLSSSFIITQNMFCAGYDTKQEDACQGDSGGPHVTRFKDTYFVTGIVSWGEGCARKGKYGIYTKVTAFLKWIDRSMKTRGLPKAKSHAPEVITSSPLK
T1 sequence (P00742 41-179 partner limits assumed): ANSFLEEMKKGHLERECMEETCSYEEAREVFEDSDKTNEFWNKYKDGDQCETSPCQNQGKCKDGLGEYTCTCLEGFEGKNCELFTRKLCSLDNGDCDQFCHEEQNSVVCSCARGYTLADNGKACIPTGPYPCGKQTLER
T2 sequence (P00750 36-562): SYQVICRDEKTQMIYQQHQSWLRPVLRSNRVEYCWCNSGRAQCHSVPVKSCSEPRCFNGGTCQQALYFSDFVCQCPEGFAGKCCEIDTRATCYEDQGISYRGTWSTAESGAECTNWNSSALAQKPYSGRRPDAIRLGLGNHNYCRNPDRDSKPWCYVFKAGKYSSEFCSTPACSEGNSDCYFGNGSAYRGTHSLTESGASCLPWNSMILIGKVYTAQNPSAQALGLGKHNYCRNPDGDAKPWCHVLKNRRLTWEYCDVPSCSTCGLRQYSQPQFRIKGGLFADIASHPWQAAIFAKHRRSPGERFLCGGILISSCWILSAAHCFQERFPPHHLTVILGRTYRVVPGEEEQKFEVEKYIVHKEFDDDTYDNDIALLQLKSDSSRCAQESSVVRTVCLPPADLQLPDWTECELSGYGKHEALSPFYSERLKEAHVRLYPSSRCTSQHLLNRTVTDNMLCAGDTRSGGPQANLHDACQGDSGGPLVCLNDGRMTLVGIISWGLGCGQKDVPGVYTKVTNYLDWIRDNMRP
T3 sequence (P00747 97-810): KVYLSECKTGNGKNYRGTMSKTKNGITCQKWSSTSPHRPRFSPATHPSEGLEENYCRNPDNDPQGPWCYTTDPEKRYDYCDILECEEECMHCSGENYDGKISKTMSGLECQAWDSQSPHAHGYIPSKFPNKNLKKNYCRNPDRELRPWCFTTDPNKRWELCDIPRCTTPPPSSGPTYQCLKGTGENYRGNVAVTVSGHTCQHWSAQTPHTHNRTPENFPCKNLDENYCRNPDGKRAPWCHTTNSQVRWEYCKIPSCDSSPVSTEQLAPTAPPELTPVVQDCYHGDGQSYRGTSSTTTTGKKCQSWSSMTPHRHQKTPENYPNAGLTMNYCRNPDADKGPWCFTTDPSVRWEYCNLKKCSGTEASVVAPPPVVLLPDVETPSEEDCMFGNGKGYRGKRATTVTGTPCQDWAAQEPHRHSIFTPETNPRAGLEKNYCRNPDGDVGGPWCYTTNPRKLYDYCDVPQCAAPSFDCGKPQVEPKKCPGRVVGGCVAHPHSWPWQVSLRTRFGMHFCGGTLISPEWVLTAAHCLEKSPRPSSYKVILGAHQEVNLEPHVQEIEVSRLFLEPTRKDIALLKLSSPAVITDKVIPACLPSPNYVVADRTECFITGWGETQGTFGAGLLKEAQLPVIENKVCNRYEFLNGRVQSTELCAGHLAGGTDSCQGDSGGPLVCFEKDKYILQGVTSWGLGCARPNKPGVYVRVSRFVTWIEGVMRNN
T3 sequence (P00747 97-580 partner limits assumed): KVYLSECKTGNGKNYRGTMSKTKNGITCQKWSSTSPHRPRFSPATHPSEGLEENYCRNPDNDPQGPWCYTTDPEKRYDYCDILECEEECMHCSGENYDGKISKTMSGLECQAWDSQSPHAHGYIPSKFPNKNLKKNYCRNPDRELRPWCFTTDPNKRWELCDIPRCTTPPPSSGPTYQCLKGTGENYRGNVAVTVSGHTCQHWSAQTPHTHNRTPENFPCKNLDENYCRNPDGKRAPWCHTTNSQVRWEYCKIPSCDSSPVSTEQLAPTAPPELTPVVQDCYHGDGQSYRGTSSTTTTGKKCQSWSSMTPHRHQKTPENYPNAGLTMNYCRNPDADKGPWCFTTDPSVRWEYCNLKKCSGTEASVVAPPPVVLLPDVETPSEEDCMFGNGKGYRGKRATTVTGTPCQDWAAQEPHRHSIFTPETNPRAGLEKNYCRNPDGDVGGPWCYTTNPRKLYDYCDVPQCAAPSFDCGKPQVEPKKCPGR

Compound	Kass Xa [1]	Kass t-PA [2]	Kass Human Thrombin [3]	Kass Plasmin [4]	Human Plasma Anticoagulation 2× Clotting time TT [5] [ng/mL]	% oral/i.v. activity (Rat) [6] [%]	Kass Trypsin [7]	Kass Xa [1, 10]	Human Plasma Anticoagulation 2× Clotting time APTT [8]	Kass Human Thrombin [3, 11]	Kass Plasmin [4, 12]	Kass Trypsin [7, 13]	Human Plasma Anticoagulation 2× Clotting time PT [9]
CCS(=O)(=O)N[C@H](Cc1ccccc1)C(=O)N1CCC[C@H]1C(=O)NCCCCNC(=N)N [Example 1, EtSO2 -D-Phe-Pro-Agm.HCl]	0.0017	0.082 × 10^6 (L/mole)	3.3	0.010	250	8	0.38						
D-hPro-N(PhCH2 CH2)Gly-p-NHCH2 --C6 H4 C(NH)NH2.2HCl [Example 21]		0.002 × 10^6 (L/mole)			160			0.62 × 10^6 (L/mole)	2,000 ng/mL	3.6 × 10^6 (L/mole)	0.031 × 10^6 (L/mole)	0.96 × 10^6 (L/mole)	1,000 ng/mL
D-hPro-Pro(4-cis-PhO)-p-NHCH2 --C6 H4 C(NH)NH2.2HCl [Example 22]		0.004 × 10^6 (L/mole)			170			0.043 × 10^6 (L/mole)	2,300 ng/mL	3.0 × 10^6 (L/mole)	0.042 × 10^6 (L/mole)	8.5 × 10^6 (L/mole)	1,000 ng/mL
D-hPro-Pro-p-NHCH2 C6 H4 C(NH)NH2.HCl [Example 17]		0.0034 × 10^6 (L/mole)			26			0.049 × 10^6 (L/mole)	370 ng/mL	33 × 10^6 (L/mole)	0.024 × 10^6 (L/mole)	3.8 × 10^6 (L/mole)	400 ng/mL
EtSO2 -D-Phe-Pro-p-NHCH2 --C6 H4 C(=NH)NH2.HCl [Example 23]		0.31 × 10^6 (L/mole)			7			0.14 × 10^6 (L/mole)	86 ng/mL	770 × 10^6 (L/mole)	0.44 × 10^6 (L/mole)	21 × 10^6 (L/mole)	120 ng/mL
HOOCCH2 -D-Phe-Pro-p-NHCH2 C6 H4 C(NH)NH2.HCl [Example 46]	0.07	0.01 × 10^6 (L/mole)	240	0.13	2				67 ng/mL			48 × 10^6 (L/mole)	77 ng/mL
